In patent US20100152188A1, “Novel Heterocyclic Compounds” (priority 2005, published 2010):
Like-named read-outs stand apart in the source and are kept apart here.

Legend:
[1] = tested on: NCIH460, HCT116, MDAMB-231/U 251; assay: Anti-cancer screen, mean GI50 over the cell lines; format: cell-based; settings: in µM
Description: (§1) Experimental drugs are screened for anti-cancer activity in three cell lines for their GI50, TGI and LC50 values (using five concentrations for each compound). The cell lines are maintained in DMEM containing 10% fetal bovine serum. 96 well micro titer plates are inoculated with cells in 100 µL for 24 hours at 37° C., 5% CO2, 95% air and 100% relative humidity. 5000 HCT 116 cells/well, 5000 NCIH 460 cells/well and 5000 U251 cells/well are plated. A separate plate with these cell lines is also inoculated to determine cell viability before the addition of the compounds (T0).
(§2) Following 24-hour incubation, experimental drugs are added to the 96 well plates. Each plate contains one of the above cell lines and the following in triplicate: five different concentrations (0.01, 0.1, 1, 10 and 100 µM) of four different compounds, appropriate dilutions of a cytotoxic standard and control (untreated) wells. Compounds are dissolved in DMSO to make 20 mM stock solutions on the day of drug addition and frozen at −20° C. Serial dilutions of these 20 mM stock solutions are made in complete growth medium such that 100 µL of these drug solutions in medium, of final concentrations equaling 0.01, 0.1, 1, 10 and 100 µM can be added to the cells in triplicate. Standard drugs whose anti-cancer activity has been well documented and which are regularly used are doxorubicin and SAHA.
(§3) For T0 measurement, 24 hours after seeding the cells, 10 µL of 3-(4,5-Dimethyl-2-thiazolyl)-2,5-diphenyl-2H-tetrazolium (MTT) solution per well is added and incubation carried out for 3 hours at 37° C., 5% CO2, 95% air and 100% relative humidity, protected from light. Cells incubated with compounds for 48 hours are treated similarly except with the addition of 20 µl MTT solution per well and a subsequent incubation under the same conditions. After 3 hours of MTT incubation, well contents are aspirated carefully followed by addition of 150 µL DMSO per well. Plates are agitated to ensure solution of the formazan crystals in DMSO and absorbance read at 570 nm.
(§4) Percent growth is calculated for each compound's concentration relative to the control and zero measurement wells (T0; viability right before compound addition). If a test well's O.D. value is greater than the T0 measurement for that cell line

MDAMB-231/U 251 = assay: Anti-cancer screen (MTT), MDAMB-231/U 251; format: cell-based; settings: for CC50: read-out: MDAMB-231/U 251 LC50
Description: as §1, §2, §3, §4
(§5) %Growth=(test−zero)/(control−zero)×100
(§6) If a test well's O.D. value is lower than the T0 measurement for that cell line, then,
(§7) %Growth=(test−zero)/zero×100

HCT116 = assay: Anti-cancer screen (MTT), HCT116; format: cell-based; settings: Homo sapiens, HCT-116, 48 hours with compound, tested at 0.01-100 µM
Description: as §1, §2, §3, §4, §5, §6, §7

HDAC = HDAC inhibition; format: biochemical; settings: for HDAC Inhibition 1 μM: compound at 1 μM; for HDAC Inhibition 10 μM: compound at 10 μM
NCIH460 = assay: Anti-cancer screen (MTT), NCIH460; format: cell-based; settings: Homo sapiens, NCI-H460, 48 hours with compound, tested at 0.01-100 µM
Description: as §1, §2, §3, §4, §5, §6, §7

[2] = 48 hours with compound, MTT, tested at 0.01-100 µM

Row | SMILES | Mean GI50 [1] | CC50 (MDAMB-231/U 251; 48 h) | GI50 (MDAMB-231/U 251; [2]) | IC (TGI) (MDAMB-231/U 251; [2]) | GI50 (HCT116) | IC (TGI) (HCT116) | LC50 (concentration giving 50% net cell kill relative to T0) (HCT116) | HDAC Inhibition 1 μM (HDAC) | HDAC Inhibition 10 μM (HDAC) | GI50 (NCIH460) | IC (TGI) (NCIH460) | LC50 (NCIH460) | CC50 (MDAMB-231/U 251; [2]) | CC50 (HCT116; read-out: HCT116 LC50)
1 | O=C(Cc1csc(NC(=O)OCc2cccnc2)n1)NO [Example 1, pyridin-3-ylmethyl{4-[2-(hydroxyamino)-2-oxoethyl]-1,3-thiazol-2-yl}carbamate] | 0.4 | > 100 µM | 1 µM | > 100 µM | 0.25 µM | 4 µM | > 100 µM | 1.3 | 31.5 | 0.01 µM | 0.5 µM | > 100 µM | – | –
2 | O=C(Cc1csc(NC(=O)OCc2cccs2)n1)NO [Example 2, 2-Thienylmethyl{4-[2-(hydroxyamino)-2-oxoethyl]-1,3-thiazol-2-yl}carbamate] | >100 | > 100 µM | > 100 µM | > 100 µM | > 100 µM | > 100 µM | > 100 µM | 0.8 | 22.42 | > 100 µM | > 100 µM | > 100 µM | – | –
3 | CNC(=O)c1ccc(CNC(=O)OCC2COc3ccccc3O2)cc1 (stereo not shown) [Example 42, 2,3-Dihydro-1,4-benzodioxin-2-ylmethyl{4-[(methylamino)carbonyl]benzyl}carbamate] | >100 | > 100 µM | 0.7 µM | > 100 µM | > 100 µM | > 100 µM | > 100 µM | – | – | > 100 µM | > 100 µM | > 100 µM | – | –
4 | CONC(=O)c1ccc(CNC(=O)OCc2c(F)c(F)c(F)c(F)c2F)cc1 [Example 44, Pentafluorobenzyl(4-{[methoxyamino]carbonyl}benzyl)carbamate] | 22.67 | > 100 µM | 5 µM | 9 µM | 21 µM | > 100 µM | > 100 µM | – | – | 42 µM | > 100 µM | > 100 µM | – | –
5 | O=C(NCc1ccc(C(=O)Nc2nnc(C3CC3)s2)cc1)OCc1c(F)c(F)c(F)c(F)c1F [Example 56, Pentafluorobenzyl(4-{[(5-cyclopropyl-1,3,4-thiadiazol-2-yl)amino]carbonyl}benzyl)carbamate] | 0.5 | 65 µM | 0.8 µM | 7 µM | 0.5 µM | > 100 µM | > 100 µM | – | – | 0.3 µM | 0.8 µM | > 100 µM | – | –
6 | O=C(NCc1ccc(C(=O)NCCO)cc1)OCc1cccs1 [Example 61, 2-Thienylmethyl(4-{[(2-hydroxyethyl)amino]carbonyl}benzyl)carbamate] | >100 | > 100 µM | 65 µM | > 100 µM | > 100 µM | > 100 µM | > 100 µM | – | – | > 100 µM | > 100 µM | > 100 µM | – | –
7 | O=C(NCc1ccc(C(=O)N2CCN(Cc3ccc4c(c3)OCO4)CC2)cc1)OCc1c(F)cc(F)cc1F [Example 62, 2,4,6-Trifluorobenzyl(4-{[4-(1,3-benzodioxol-5-ylmethyl)piperazin-1-yl]carbonyl}benzyl)carbamate] | 1.7 | > 100 µM | 2 µM | 10 µM | 3 µM | > 100 µM | > 100 µM | – | – | 0.1 µM | 8.5 µM | > 100 µM | – | –
8 | O=C(NCc1ccc(C(=O)Nc2ncc([N+](=O)[O-])s2)cc1)OCc1cccs1 [Example 69, 2-thienylmethyl(4-{[(5-nitro-1,3-thiazol-2yl)amino]carbonyl}benzyl)carbamate] | 40.33 | – | – | – | – | – | – | 13.14 | 12.38 | – | – | – | – | –
9 | O=C(NCc1ccc(C(=O)NOCc2ccccc2)cc1)OCc1cccs1 [Example 73, 2-Thienylmethyl(4-{[(benzyloxy)amino]carbonyl}benzyl)carbamate] | >100 | – | – | – | – | – | – | 6.60 | 12.42 | – | – | – | – | –
10 | CC(=O)N(O)C(=O)Cc1csc(NC(=O)OCc2cc(Br)cs2)n1 [Example 79, (4-Bromo-2-thienyl)methyl(4-{2-[acetyl(hydroxy)amino]-2-oxoethyl}-1,3-thiazol-2-yl)carbamate] | 20.1 | – | 0.4 µM | 52 µM | 30 µM | 65 µM | – | – | – | 30 µM | 74 µM | > 100 µM | 100 µM | 95 µM
11 | COC(=O)ON(C)C(=O)c1ccc(CNC(=O)OCc2cccs2)cc1 [Example 85, 2-Thienylmethyl[4-({[(methoxycarbonyl)oxy](methyl)amino}carbonyl)benzyl]carbamate] | 10.67 | – | – | – | – | – | – | 3.18 | 7.89 | – | – | – | – | –
12 | COC(=O)N(OCc1ccccc1)C(=O)c1ccc(CNC(=O)OCc2cccs2)cc1 [Example 86, 2-Thienylmethyl[4-({(N-benzyloxy)(N-methoxycarbonyl)amino}carbonyl)benzyl]carbamate] | >100 | – | – | – | – | – | – | 5.98 | −10.22 | – | – | – | – | –
13 | O=C(CCCNC(=O)Cc1csc(NC(=O)OCc2cccnc2)n1)NO [Example 88, Pyridin-3-ylmethyl[4-(2-{[4-(hydroxyamino)-4-oxobutyl]amino}-2-oxoethyl)-1,3-thiazol-2-yl]carbamate] | >100 | > 100 µM | 6 µM | > 100 µM | > 100 µM | > 100 µM | > 100 µM | – | – | > 100 µM | > 100 µM | > 100 µM | – | –
14 | O=C(CCCNC(=O)Cc1csc(NC(=O)OCc2c(F)c(F)c(F)c(F)c2F)n1)NO [Example 92, Pentafluorobenzyl[4-(2-{[4-(hydroxyamino)-4-oxobutyl]amino}-2-oxoethyl)-1,3-thiazol-2-yl]carbamate] | >100 | > 100 µM | 30 µM | 50 µM | > 100 µM | > 100 µM | > 100 µM | – | – | > 100 µM | > 100 µM | > 100 µM | – | –
15 | O=C(CCCCCNC(=O)Cc1csc(NC(=O)OCc2c(F)c(F)c(F)c(F)c2F)n1)NO [Example 94, Pentafluorobenzyl[4-(2-{[6-(hydroxyamino)-6-oxohexyl]amino}-2-oxoethyl)-1,3-thiazol-2-yl]carbamate] | 25.66 | 84 µM | 19 µM | 50 µM | 23 µM | 62 µM | 84 µM | – | – | 35 µM | 67 µM | > 100 µM | – | –
16 | O=C(CCCCCNC(=O)Cc1csc(NC(=O)OCc2ccncc2)n1)NO [Example 98, Pyridin-4-ylmethyl[4-(2-{[6-(hydroxyamino)-6-oxohexyl]amino}-2-oxoethyl)-1,3-thiazol-2-yl]carbamate] | >100 | – | – | – | – | – | – | 94.01 | 129.59 | – | – | – | – | –
17 | O=C(CCCCCNC(=O)c1ccc(CNC(=O)OCc2cccs2)cc1)Nc1nnc(C2CC2)s1 [Example 103] | 33.5 | 85 µM | 0.4 µM | 18 µM | 40 µM | > 100 µM | > 100 µM | – | – | 60 µM | > 100 µM | > 100 µM | – | –
18 | N#Cc1ccc(NC(=O)Nc2cccc(NC(=O)c3ccc(CNC(=O)OCc4cccs4)cc3)c2)cc1 [Example 105, 2-Thienylmethyl[4-({[3-({[(4-cyanophenyl)amino]carbonyl}amino)phenyl]amino}carbonyl)benzyl]carbamate] | 6.73 | – | – | – | – | – | – | 11.02 | 12.74 | – | – | – | – | –
